This note sets out measurements from article PMC11412900 (Molecular Psychiatry, 2024).

For assay [1], the target named is T1, SERT (Homo sapiens, UniProt P31645).
T1 construct: YFP (yellow-fluorescent protein); expressed in transfected cells
Briefly: Radioligand binding, [3H]imipramine displacement. On the procedure: (§1) Binding assays were performed as described previously. Briefly, membrane preparations expressing h5-HT1AR, h5-HT2AR or hSERT (see Supplementary Material) were incubated with radiolabeled selective ligands 0.4 nM [^3H]8-OH-DPAT, 1 nM [^3H]ketanserin or 3 nM [^3H]imipramine, respectively. The drugs were diluted in the corresponding binding buffer and tested at increasing concentrations in duplicate. Binding reactions were performed in tubes containing the drug dilutions; 25 μl of the corresponding radioligand; and the membranes (10 μg and 5 μg/500 μL for 5-HT1AR and 5-HT2AR, respectively, and 15 μg/100 μL for hSERT), all diluted in binding buffer. […] Incubation was performed for 1 h at 27 °C for 5-HT1A/2AR and 22 °C for hSERT, according to the manufacturer’s protocol (Perkin Elmer, Inc., Waltham, MA, USA) and previous studies - saturation and kinetic experiments, respectively. The binding reactions were stopped by rapid filtration through GF/B glass microfiber filters pre-soaked with 0.5% polyethyleneimine and washing with ice-cold wash buffer. The filters were placed into vials and scintillation cocktail was added. The trapped radioactivity was quantified. Specific binding was defined as the difference between total binding (binding buffer alone) and non-specific binding. Experiments were conducted per duplicate for at least three independent experiments.
(§2) The generation and maintenance of HEK293 cells stably expressing the yellow-fluorescent protein (YFP)-tagged version of the human isoform of SERT (hSERT) (Perkin Elmer, Waltham, MA, USA) was carried out as described previously. For uptake inhibition and batch release assays, cells were seeded onto previously poly-D-lysine (PDL)-coated 96-well plates at a density of 0.036 million cells per well [5]. For superfusion release assays, cells were seeded onto a previously coated with PDL 6 channel µ-slide at a density of 0.08 million cells per channel. Prior to patching, cells were grown in DMEM containing 10% FBS, Zeocin (150 µg/mL) and Blasticidin (6 µg/mL) for positive selection of transporter-expressing clones. The cells were seeded at a low density on PDL-coated 35 mm plates 24-48 hr prior to patching. For membrane preparation, HEK293 cells expressing hSERT transporters were harvested from 80–90% confluent dishes as described elsewhere. Protein concentration was determined using the Bio-RadProtein Reagent (Bio Rad Laboratories, Hercules, CA, USA). Membrane preparations were stored at −80°C until use. Generation and maintenance of CHO-K1 cells expressing the human isoform of 5-HT2AR (h5-HT2AR) was carried out as described in the manufacturer’s protocol (Perkin Elmer, Waltham, MA, USA). Routine DAPI-Staining assays tested negative in mycoplasma contamination.

Assay [2] deals with T1, SERT. Briefly: [3H]5-HT uptake inhibition in HEK293 cells expressing hSERT. In kind it is cell-based. On the procedure: See the Supplementary Material for cell culture procedures. The medium was removed from each well and replaced with 200 μL/well of Krebs-HEPES-Buffer (KHB). The cells were pre-incubated for 5 min with different concentrations of drug in KHB at 50 μL/well. […] The incubation solution was aspirated and the cells were washed with ice-cold KHB and lysed with 1% sodium dodecyl sulfate (SDS). The lysate was collected into vials and scintillation liquid was added. The radioactivity was quantified using a beta-scintillation counter (Perkin Elmer, Waltham, MA, USA). Non-specific uptake was determined in the presence of 30 μM paroxetine. Data were expressed as percentage of control uptake (absence of tryptamine).
as §2

Assay [3] concerns head twitch response in mice. Briefly: Head twitch response (HTR). The assay is classed as in vivo. Conditions: for HTR Emax (95% CI): 10-min period; for Effect of antagonist pretreatment on tryptamine-induced HTR: antagonist s.c. 1 mg/kg 10 min before tryptamine i.p. 10 mg/kg. On the procedure:
HTR studies were adapted from. Mice (N = 8–10 per group) were injected intraperitoneally (i.p.) with saline or the appropriate tryptamine dose (0.3, 1, 3, 10, or 30 mg/kg) and placed into the observation arena (25 × 25 × 40 cm). A camera mounted above the observation cage recorded the mice for the next 10 min after the injection. Another batch of animals (N = 8–10) received subcutaneous injections of either saline or the respective antagonist (WAY100635 1 mg/kg for 5-HT1AR or ketanserin 1 mg/kg for 5-HT2AR). After a 10-min interval, the animals were i.p. injected with the corresponding tryptamine (10 mg/kg) and placed in the observation arena. Animal behavior was recorded for the next 10 min after the last injection, as mentioned before. Video recordings were examined by two blind observers blinded to the treatments, who assessed the number of head twitches, defined as a rapid rotational jerk of the head which is not contiguous with any grooming behavior [39].
(§3) Data were expressed as means±standard deviation (SD). Competition, release and functional assays, and substrate-induced current curves were plotted and fitted by non-linear regression to obtain the IC50, EC50, and Emax values. For behavioral studies, data were fitted by non-linear regression and pED50 and Emax values (with the corresponding 95% CI) were estimated by means of a software (GraphPad Prism 10) that further extrapolates the data. The Cheng-Prusoff equation was used to calculate Ki (affinity): Ki = […]/(1 + [radioligand-concentration/Kd]). HTR curves were fitted using a Gaussian equation as described. Data from batch release assays were statistically analyzed with a mixed-effects model, employing Šidák’s correction for multiple comparisons. Total release at each concentration and the behavioral experiments with the corresponding antagonists were statistically analyzed using one-way ANOVA, followed by Tukey’s post-hoc test. Molecular volume (van der Waals) was calculated using a grid approximation (spacing 0.75 Å). logP was calculated using Molinspiration Cheminformatics software. For in vivo studies, one-way ANOVA with Dunnet’s post-hoc test was used to compare all conditions to saline in dose-response experiments when data were normally distributed. Otherwise, a non-parametric test (Kruskall-Wallis with Dunn’s post-hoc test) was used. Alpha was set at 0.05. Outliers were excluded following ROUT’s method (Q = 0.1%). All statistical analyses and Pearson correlations were conducted using GraphPad Prism 10 software (GraphPad software, San Diego, CA, USA).

Assay [4] has as its system core body temperature in mice. Briefly: Core body temperature measurement. The assay is classed as in vivo. On the procedure: Rectal temperature of mice (N = 8–10 per group) was measured 60 min after i.p. injection of the corresponding compound (see previous section “Head twitch response”). This time point was chosen according to the maximal effect observed in pilot experiments. A thermocouple probe (YS451, Panlab, Barcelona, Spain) connected to a digital thermometer (TMP812RS, Panlab, Barcelona, Spain) was inserted 2 cm into the rectum and steady temperature readout was obtained after 10 s of insertion.
as §3

Assay [5] deals with horizontal locomotor activity in mice. Briefly: Horizontal locomotor activity (HLA). Conditions: i.p., 30 min; for HLA (hypolocomotion) Emax (95% CI): total traveled distance. In kind it is in vivo. On the procedure: The HLA test was carried out according to a previous study. The same animals (N = 8–10 per group) used for the assessment of HTR were recorded for 30 min in an observation arena, under low-light conditions with white noise. Video recordings were processed using a tracking software (Smart 3.0 Panlab, Barcelona, Spain) to measure the total traveled distance.
as §3

For assay [6], the target named is T1, SERT. Briefly: Batch release of preloaded [3H]5-HT from HEK293 cells expressing SERT. The assay is classed as cell-based. Conditions: with or without monensin, pCA as positive control. The procedure: Batch release is a functional radiometric assay to assess transporter-mediated efflux. […] Subsequently, cells were washed three times with KHB and equilibrated for 10 min in KHB or KHB+monensin (10 µM). […] 10 µM pCA and 0.05 µM paroxetine were used as positive and negative controls, respectively. Liquid scintillation cocktail was added both to the wells containing cells (200 µL) and to the transferred supernatant (100 µL). Total radioactivity determined from/in the remaining lysate of the cells plus the transferred supernatant was set as 100%, and the radioactivity determined in each fraction was expressed as a percentage thereof. Assays were performed per duplicate for five independent experiments.

Assay [7] deals with T1, SERT. Briefly: Whole-cell patch clamp, transporter-mediated currents in HEK293 cells. In kind it is cell-based. The source says: Whole-cell patch clamping was used to measure the transporter-mediated currents and performed as previously described. […] Cells were continuously superfused by a DAD-12 superfusion system and an 8-tube perfusion manifold (ALA Scientific Instruments in Farmingdale, NY, USA), which allowed to apply a physiological external solution. The pipette solution mimics the internal ionic composition of a cell. […] Passive holding currents were subtracted, and the traces were filtered using a 50-Hz digital Gaussian low-pass filter for analysis purposes. Five independent experiments were performed.

The next assay has as its target T2, h5-HT1AR (Homo sapiens, UniProt P08908).
T2 construct: purchased Perkin Elmer, Inc. (Waltham, MA, USA)
T2 sequence (P08908 1-422): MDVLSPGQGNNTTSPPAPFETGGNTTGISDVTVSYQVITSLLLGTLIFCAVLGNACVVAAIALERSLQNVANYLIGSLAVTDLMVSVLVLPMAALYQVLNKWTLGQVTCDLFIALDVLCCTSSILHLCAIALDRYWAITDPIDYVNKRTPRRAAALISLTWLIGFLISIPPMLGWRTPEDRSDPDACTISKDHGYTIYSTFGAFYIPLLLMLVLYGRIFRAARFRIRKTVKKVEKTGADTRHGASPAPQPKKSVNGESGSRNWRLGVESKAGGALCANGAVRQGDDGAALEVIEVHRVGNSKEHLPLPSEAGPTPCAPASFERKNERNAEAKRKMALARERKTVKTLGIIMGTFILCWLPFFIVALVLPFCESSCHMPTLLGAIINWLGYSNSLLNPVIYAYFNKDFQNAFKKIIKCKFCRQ
Briefly: Radioligand binding, [3H]8-OH-DPAT displacement. Conditions: 0.4 nM [3H]8-OH-DPAT, N ≥ 3; read-out: 5-HT1AR Ki ± SD. On the procedure:
as §1

For another assay, the target named is T3, h5-HT2AR (Homo sapiens, UniProt P28223).
T3 construct: purchased Perkin Elmer, Inc. (Waltham, MA, USA)
The assay is classed as binding. Conditions: 1 nM [3H]ketanserin, N ≥ 3; read-out: 5-HT2AR Ki ± SD. The procedure: as §1

Setting [8] is: 3 nM [3H]imipramine, N ≥ 3, read-out: SERT Ki ± SD.
[9] abbreviates: read-out: 5-HT uptake inhibition IC50 ± SD, HEK293 hSERT, N ≥ 3.
[10] abbreviates: mice, i.p., 10 min after injection.
Where [11] appears, read: mice, i.p., 60 min after injection.

Like-named read-outs stand apart in the source and are kept apart here.

T1 sequence (P31645 whole entry): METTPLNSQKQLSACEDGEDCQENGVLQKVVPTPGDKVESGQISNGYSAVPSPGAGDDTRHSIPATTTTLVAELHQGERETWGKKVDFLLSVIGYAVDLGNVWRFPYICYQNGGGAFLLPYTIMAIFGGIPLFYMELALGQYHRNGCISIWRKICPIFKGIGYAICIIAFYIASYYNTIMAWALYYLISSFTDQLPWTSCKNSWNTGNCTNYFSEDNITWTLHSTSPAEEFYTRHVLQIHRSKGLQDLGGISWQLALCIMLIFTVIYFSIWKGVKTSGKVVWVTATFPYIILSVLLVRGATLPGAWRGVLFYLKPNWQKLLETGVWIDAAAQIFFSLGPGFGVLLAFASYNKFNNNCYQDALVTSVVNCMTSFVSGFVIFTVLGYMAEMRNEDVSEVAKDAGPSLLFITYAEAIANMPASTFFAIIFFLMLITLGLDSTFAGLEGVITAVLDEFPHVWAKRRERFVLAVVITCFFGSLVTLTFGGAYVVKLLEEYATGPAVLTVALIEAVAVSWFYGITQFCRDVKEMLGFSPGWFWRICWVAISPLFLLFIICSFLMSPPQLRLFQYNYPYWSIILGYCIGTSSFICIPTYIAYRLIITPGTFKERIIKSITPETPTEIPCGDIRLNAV
T3 sequence (P28223 whole entry): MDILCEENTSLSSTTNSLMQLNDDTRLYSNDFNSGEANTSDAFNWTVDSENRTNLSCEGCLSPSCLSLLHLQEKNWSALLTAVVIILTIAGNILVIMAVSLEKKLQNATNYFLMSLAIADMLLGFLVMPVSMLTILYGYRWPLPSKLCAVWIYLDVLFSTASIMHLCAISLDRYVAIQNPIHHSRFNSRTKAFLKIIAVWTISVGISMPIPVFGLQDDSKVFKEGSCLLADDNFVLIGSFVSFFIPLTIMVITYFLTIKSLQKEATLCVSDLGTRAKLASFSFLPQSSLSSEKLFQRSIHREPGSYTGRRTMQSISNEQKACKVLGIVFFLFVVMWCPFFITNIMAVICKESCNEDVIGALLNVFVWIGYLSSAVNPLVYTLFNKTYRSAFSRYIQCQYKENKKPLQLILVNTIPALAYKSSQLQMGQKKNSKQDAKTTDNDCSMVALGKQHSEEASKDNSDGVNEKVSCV

In turn, `COc1ccc2[nH]cc(CCN(C)C)c2c1` [5-MeO-DMT, 5-methoxy-N,N-dimethyltryptamine] displayed a Ki at SERT [1] of 14.5 µM. The IC50 against SERT [2] amounted to 50.1 µM. The ED50 in assay [3] (Mus musculus, ip, 10 min, mice, i.p., 10 min after injection) stood at 4.84 mg/kg; in [4] (Mus musculus, ip, 1 h, mice, i.p., 60 min after injection, read-out: Change in body temperature ED50), 4.75 mg/kg; in [5] (Mus musculus, ip, 0.5 h, read-out: HLA (hypolocomotion) ED50), 0.976 mg/kg. Moreover, the “HTR Emax (95% CI)” value in assay [3] (mice, i.p.) is on record as 38.1 (31.7–44.5) HTR events. Besides, the “HLA (hypolocomotion) Emax (95% CI)” value in assay [5] was 41.72 (32.18–51.26) % reduction. Also, the “5-HT releasing activity” value on SERT [6] is given as “capable of evoking 5-HT release”. The concentration giving a half-maximal response (EC50) at SERT [7] worked out at 2.6 µM. The “SERT-mediated inward current Emax” value at SERT [7] (normalized to current elicited by 5-HT 10 µM) came to 0.41. The “SERT substrate type” value on SERT [7] (whole-cell patch clamp) is “partial SERT substrates”.

Turning to `C=CCN(C)CCc1c[nH]c2ccc(OC)cc12` [5-MeO-MALT], the Ki at h5-HT1AR amounted to 0.00596 ± 0.00047 µM; on h5-HT2AR it was 0.0529 ± 0.009 µM; at SERT [1] (setting [8]), 4.01 ± 0.417 µM. In addition, the IC50 on SERT [2] (setting [9]) was 44.1 µM. In [3] (mice, i.p.), the “HTR Emax (95% CI)” value is recorded as 27.6 (23.2–32.0) HTR events. Further, the “HTR ED50” value in assay [3] (setting [10]) came to 0.796 mg/kg. Moreover, in assay [4] (setting [11]), the “Change in body temperature ED50” value came out at 10.2 mg/kg. Also, the “HLA (hypolocomotion) ED50” value in assay [5] came out at 7.32 mg/kg. Besides, in assay [5], the “HLA (hypolocomotion) Emax (95% CI)” value is listed as 85.40 (55.18–115.6) % reduction.

Turning to `COc1ccc2[nH]cc(CCNC(C)C)c2c1` [5-MeO-NIPT], the Ki at h5-HT1AR came out at 0.0157 ± 0.0023 µM; on h5-HT2AR, 0.123 ± 0.038 µM; on SERT [1] (setting [8]) it was 8.59 ± 1.71 µM. Besides, the IC50 at SERT [2] (setting [9]) was found to be 32.1 µM. In addition, in [3] (mice, i.p.), the “HTR Emax (95% CI)” value is listed as 7.58 (5.46–9.71) HTR events. Besides, the “HTR ED50” value in assay [3] (setting [10]) was 4.85 mg/kg. Moreover, the “Change in body temperature ED50” value in assay [4] (setting [11]) was 7.35 mg/kg. The “HLA (hypolocomotion) ED50” value in assay [5] turned out to be 1.96 mg/kg. Also, the “HLA (hypolocomotion) Emax (95% CI)” value in [5] was 77.64 (69.78–85.50) % reduction.

With `COc1ccccc1N1CCN(CCN(C(=O)C2CCCCC2)c2ccccn2)CC1` [WAY100635, reference compound], the “Effect of antagonist pretreatment on tryptamine-induced HTR” value in [3] was “the number of head twitches increased significantly”. In assay [4] (antagonist s.c. 1 mg/kg before tryptamine i.p. 10 mg/kg, 60 min), the “Effect of antagonist pretreatment on tryptamine-induced decrease in body temperature” value is listed as “the decrease in body temperature was lower”.

Consider `O=C(c1ccc(F)cc1)C1CCN(CCn2c(=O)[nH]c3ccccc3c2=O)CC1` [ketanserin, reference compound], for which the “Effect of antagonist pretreatment on tryptamine-induced HTR” value in assay [3] was “prevented HTR response”.
